How the values were obtained:
[1] = system: panel of haematalogical cancer cell lines; assay: Compound A with BTK inhibitors, 72-hour in vitro proliferation assays; assay type: cell-based; conditions: combination Compound A × listed BTK inhibitor, 72-hour proliferation
[2] = system: panel of breast cancer cell lines; assay: Compound A with targeted agents and chemotherapies, 72-hour in vitro proliferation assays; assay type: cell-based; conditions: compound A × partner, 72-hour proliferation

CC#CC(=O)N1CCC[C@H]1c1nc(-c2ccc(C(=O)Nc3ccccn3)cc2)c2c(N)nccn12 [Acalabrutinib]
Best CI ([1]; HBL-1 cells): 0.09 | Best CI Level ([1]; HBL-1 cells): 55 | Bliss Volume ([1]; HBL-1 cells): 4.86 | HSA volume ([1]; HBL-1 cells): 9.39 | Loewe Volume ([1]; HBL-1 cells): 9.09 | Synergy Score ([1]; HBL-1 cells): 7.28 | Best CI ([1]; OCI-Ly10 cells): 0.69 | Best CI Level ([1]; OCI-Ly10 cells): 80 | Bliss Volume ([1]; OCI-Ly10 cells): −1.82 | HSA volume ([1]; OCI-Ly10 cells): 0.62 | Loewe Volume ([1]; OCI-Ly10 cells): −0.84 | Synergy Score ([1]; OCI-Ly10 cells): 1.59 | Best CI ([1]; SU-DHL-2 cells): 0.39 | Best CI Level ([1]; SU-DHL-2 cells): 20 | Bliss Volume ([1]; SU-DHL-2 cells): 1.10 | HSA volume ([1]; SU-DHL-2 cells): 1.30 | Loewe Volume ([1]; SU-DHL-2 cells): 2.29 | Synergy Score ([1]; SU-DHL-2 cells): 1.76 | Best CI ([1]; SU-DHL-4 cells): 0.90 | Best CI Level ([1]; SU-DHL-4 cells): 80 | Bliss Volume ([1]; SU-DHL-4 cells): 0.66 | HSA volume ([1]; SU-DHL-4 cells): −3.54 | Loewe Volume ([1]; SU-DHL-4 cells): −2.10 | Synergy Score ([1]; SU-DHL-4 cells): 1.02 | Best CI ([1]; SU-DHL-8 cells): 0.79 | Best CI Level ([1]; SU-DHL-8 cells): 20 | Bliss Volume ([1]; SU-DHL-8 cells): 3.28 | HSA volume ([1]; SU-DHL-8 cells): −5.31 | Loewe Volume ([1]; SU-DHL-8 cells): −3.08 | Synergy Score ([1]; SU-DHL-8 cells): 0.52 | Best CI ([1]; TMD8 cells): 0.09 | Best CI Level ([1]; TMD8 cells): 80 | Bliss Volume ([1]; TMD8 cells): 2.07 | HSA volume ([1]; TMD8 cells): 3.89 | Loewe Volume ([1]; TMD8 cells): 2.90 | Synergy Score ([1]; TMD8 cells): 3.60 | Best CI ([1]; U-2932 cells): 0.49 | Best CI Level ([1]; U-2932 cells): 65 | Bliss Volume ([1]; U-2932 cells): 5.67 | HSA volume ([1]; U-2932 cells): 7.07 | Loewe Volume ([1]; U-2932 cells): 7.67 | Synergy Score ([1]; U-2932 cells): 4.74

CC(=O)c1c(C)c2cnc(Nc3ccc(N4CCNCC4)cn3)nc2n(C2CCCC2)c1=O [PD-0332991]
Best CI ([2]; AU565 cell line): 1.01 | Bliss Volume ([2]; AU565 cell line): −1.48 | HSA volume ([2]; AU565 cell line): −4.75 | Loewe Volume ([2]; AU565 cell line): −4.99 | Synergy Score ([2]; AU565 cell line): 1.50 | Best CI ([2]; BT-20 cell line): 1.30 | Bliss Volume ([2]; BT-20 cell line): −2.05 | HSA volume ([2]; BT-20 cell line): −0.62 | Loewe Volume ([2]; BT-20 cell line): −1.20 | Synergy Score ([2]; BT-20 cell line): 3.95 | Best CI ([2]; BT-549 cell line): 1.07 | Bliss Volume ([2]; BT-549 cell line): 5.11 | HSA volume ([2]; BT-549 cell line): 3.60 | Loewe Volume ([2]; BT-549 cell line): 5.15 | Synergy Score ([2]; BT-549 cell line): 3.67 | Best CI ([2]; CAL-51 cell line): 0.82 | Bliss Volume ([2]; CAL-51 cell line): −3.23 | HSA volume ([2]; CAL-51 cell line): −1.09 | Loewe Volume ([2]; CAL-51 cell line): −1.26 | Synergy Score ([2]; CAL-51 cell line): 0.38 | Best CI ([2]; CAL-85-1 cell line): 0.75 | Bliss Volume ([2]; CAL-85-1 cell line): −7.60 | HSA volume ([2]; CAL-85-1 cell line): −8.20 | Loewe Volume ([2]; CAL-85-1 cell line): −7.47 | Synergy Score ([2]; CAL-85-1 cell line): 0.30 | Best CI ([2]; CAL-120 cell line): 1.81 | Bliss Volume ([2]; CAL-120 cell line): −0.11 | HSA volume ([2]; CAL-120 cell line): −7.17 | Loewe Volume ([2]; CAL-120 cell line): −6.92 | Synergy Score ([2]; CAL-120 cell line): 0.11 | Best CI ([2]; CAL-148 cell line): 0.21 | Bliss Volume ([2]; CAL-148 cell line): −2.31 | HSA volume ([2]; CAL-148 cell line): −5.69 | Loewe Volume ([2]; CAL-148 cell line): −4.24 | Synergy Score ([2]; CAL-148 cell line): 0.81 | Best CI ([2]; CAMA-1 cell line): 0.49 | Bliss Volume ([2]; CAMA-1 cell line): −4.96 | HSA volume ([2]; CAMA-1 cell line): −11.74 | Loewe Volume ([2]; CAMA-1 cell line): −11.95 | Synergy Score ([2]; CAMA-1 cell line): 0.99 | Best CI ([2]; DU-4475 cell line): 0.97 | Bliss Volume ([2]; DU-4475 cell line): 0.05 | HSA volume ([2]; DU-4475 cell line): −1.86 | Loewe Volume ([2]; DU-4475 cell line): −0.06 | Synergy Score ([2]; DU-4475 cell line): 0.30 | Best CI ([2]; EVSA-T cell line): 0.77 | Bliss Volume ([2]; EVSA-T cell line): −4.20 | HSA volume ([2]; EVSA-T cell line): −6.37 | Loewe Volume ([2]; EVSA-T cell line): −5.67 | Synergy Score ([2]; EVSA-T cell line): 0.21 | Best CI ([2]; HCC38): 0.19 | Bliss Volume ([2]; HCC38): −13.23 | HSA volume ([2]; HCC38): −17.15 | Loewe Volume ([2]; HCC38): −16.79 | Synergy Score ([2]; HCC38): 0.01 | Best CI ([2]; HCC70): 0.68 | Bliss Volume ([2]; HCC70): 4.80 | HSA volume ([2]; HCC70): 3.64 | Loewe Volume ([2]; HCC70): 4.83 | Synergy Score ([2]; HCC70): 8.66 | Best CI ([2]; HCC1143): 0.75 | Bliss Volume ([2]; HCC1143): −2.16 | HSA volume ([2]; HCC1143): −3.77 | Loewe Volume ([2]; HCC1143): −0.95 | Synergy Score ([2]; HCC1143): 1.96 | Best CI ([2]; HCC1569): 0.78 | Bliss Volume ([2]; HCC1569): 8.10 | HSA volume ([2]; HCC1569): 4.93 | Loewe Volume ([2]; HCC1569): 8.19 | Synergy Score ([2]; HCC1569): 5.78 | Best CI ([2]; HCC1806): 0.02 | Bliss Volume ([2]; HCC1806): −1.37 | HSA volume ([2]; HCC1806): −4.31 | Loewe Volume ([2]; HCC1806): −1.04 | Synergy Score ([2]; HCC1806): 0.99 | Best CI ([2]; HCC1937): 0.28 | Bliss Volume ([2]; HCC1937): 14.96 | HSA volume ([2]; HCC1937): 11.05 | Loewe Volume ([2]; HCC1937): 14.74 | Synergy Score ([2]; HCC1937): 21.45 | Best CI ([2]; HCC1954): 0.47 | Bliss Volume ([2]; HCC1954): −7.91 | HSA volume ([2]; HCC1954): −8.72 | Loewe Volume ([2]; HCC1954): −7.32 | Synergy Score ([2]; HCC1954): 1.20 | Best CI ([2]; HCC2218): 1.10 | Bliss Volume ([2]; HCC2218): −0.96 | HSA volume ([2]; HCC2218): −1.25 | Loewe Volume ([2]; HCC2218): −3.22 | Synergy Score ([2]; HCC2218): 7.27 | Best CI ([2]; HDQ-P1): 0.36 | Bliss Volume ([2]; HDQ-P1): 0.47 | HSA volume ([2]; HDQ-P1): −6.53 | Loewe Volume ([2]; HDQ-P1): −11.86 | Synergy Score ([2]; HDQ-P1): 0.17 | Best CI ([2]; HMC-1-8): 0.47 | Bliss Volume ([2]; HMC-1-8): 13.91 | HSA volume ([2]; HMC-1-8): 7.82 | Loewe Volume ([2]; HMC-1-8): 8.09 | Synergy Score ([2]; HMC-1-8): 12.76

— patent publication US11931424B2, “Combination MCL-1 inhibitors with anti-body drug conjugates” (Gilead Sciences, Inc., priority 2021, dated 2024)
